The results in this text go back to ChEMBL document CHEMBL3132766, “Flavans from Desmos cochinchinensis as potent aromatase inhibitors” (Medchemcomm, 2013).

The target of test [1] is T1, Aromatase (Homo sapiens, UniProt P11511).
T1 sequence (P11511 whole entry): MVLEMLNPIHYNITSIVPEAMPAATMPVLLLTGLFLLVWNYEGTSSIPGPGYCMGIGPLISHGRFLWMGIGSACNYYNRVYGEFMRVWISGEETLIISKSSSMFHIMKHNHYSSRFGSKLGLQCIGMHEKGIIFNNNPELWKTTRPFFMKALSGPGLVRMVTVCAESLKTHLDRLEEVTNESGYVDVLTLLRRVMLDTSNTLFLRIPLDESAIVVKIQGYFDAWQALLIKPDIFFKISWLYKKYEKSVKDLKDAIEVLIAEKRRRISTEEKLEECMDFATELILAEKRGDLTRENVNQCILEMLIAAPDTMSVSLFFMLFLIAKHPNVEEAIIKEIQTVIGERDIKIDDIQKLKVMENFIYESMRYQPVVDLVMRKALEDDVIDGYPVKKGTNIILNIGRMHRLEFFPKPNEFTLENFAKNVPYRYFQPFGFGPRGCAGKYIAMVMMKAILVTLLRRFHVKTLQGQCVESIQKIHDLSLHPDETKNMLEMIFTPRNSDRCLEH
Nature of the test: Inhibition of aromatase (unknown origin).

The nature of test [2]: Cytotoxicity against human HuCCa1 cells by MTT assay. In kind it is functional, cell-based, HuCC-A1.
The subject of test [3] is A549. In words: Cytotoxicity against human A549 cells by MTT assay. In kind it is functional, cell-based.
The subject of test [4] is HepG2. Nature of the test: Cytotoxicity against human HepG2 cells by MTT assay. In kind it is functional, cell-based.
A short description of test [5]: Cytotoxicity against human MOLT3 cells by XTT assay. Particulars: MOLT-3; call rule not given here. In kind it is functional, cell-based.
For test [6], the target named is T1, Aromatase. Nature of the test: Inhibition of human recombinant aromatase expressed in baculovirus infected insect cells using O-benzylfluorescein benzyl ester as substrate after 30 mins.
Setting [7] is: Homo sapiens, HuCC-A1, read-out: IC50.
[8] abbreviates: Homo sapiens, A549, read-out: IC50.
Where [9] appears, read: Homo sapiens, HepG2, read-out: IC50.

`COc1cc(O)c([C@@H]2C[C@@H](c3ccccc3)Oc3c(C=O)c(O)cc(O)c32)c(O)c1C(=O)/C=C/c1ccccc1` gave an IC50 in test [1] of 3.3 µM.

For the molecule `COc1cc(O)c([C@H]2C[C@@H](c3ccccc3)Oc3c(C=O)c(O)cc(O)c32)c(O)c1C(=O)/C=C/c1ccccc1`, the IC50 in test [1] was 1.8 µM.

With `COc1cc(O)c(C=O)c2c1[C@H](O)C[C@@H](c1ccccc1)O2`, the half-inhibitory concentration (IC50) in test [2] (setting [7]) was 130 µM; in test [3] (setting [8]) it was 147 µM; in test [4] (hepg2), “Not Active”; in test [5], 24.3 µM; in test [6], 0.04 µM.

On to `COc1c(C)c(OC)c2c(c1C=O)O[C@H](c1ccccc1)C[C@H]2O`, for which the concentration for half-maximal inhibition (IC50) result is “Not Active” in test [2] (hucc-a1); 137 µM in test [3] (setting [8]); 99.6 µM in test [4] (setting [9]); 57.4 µM in test [5]; 1.01 µM in test [6].

Consider `COc1c(C)c(OC)c2c(c1C)O[C@H](c1ccccc1)C[C@H]2O`, for which the IC50 entry was “Not Active” in test [2] (hucc-a1); “Not Active” in test [3] (a549); 135 µM in test [4] (setting [9]); 63.5 µM in test [5]; 10.7 µM in test [6].

For `COc1cc(O)c(C=O)c2c1[C@H](OC)C[C@@H](c1ccccc1)O2`, the IC50 in test [2] (setting [7]) is 140 µM; in test [3] (a549), “Not Active”; in test [4] (hepg2), “Not Active”; in test [5] it was 41.3 µM; in test [6], 0.09 µM.

Regarding `COc1c(C)c(O)c(C=O)c2c1[C@H](O)C[C@@H](c1ccccc1)O2`, the IC50 in test [2] (setting [7]) is 143 µM; in test [3] (a549) it was “Not Active”; in test [4] (setting [9]), 143 µM; in test [5], 29.8 µM; in test [6] it was 0.08 µM.

On to `COc1c(C)c(O)c(C=O)c2c1[C@H](OC)C[C@@H](c1ccccc1)O2`, for which the 50% inhibitory concentration (IC50) amounted to 125 µM in test [2] (setting [7]); 104 µM in test [3] (setting [8]); 145 µM in test [4] (setting [9]); 28.5 µM in test [5]; 0.15 µM in test [6].

As for `COc1cc(O)c2c(c1C)O[C@H](c1ccccc1)CC2=O`, the IC50 in test [6] came out at 0.6 µM.

On to `COc1c(C)c(O)c2c(c1C)O[C@H](c1ccccc1)CC2=O`, for which the IC50 result is “Not Active” in test [2] (hucc-a1); “Not Active” in test [3] (a549); “Not Active” in test [4] (hepg2); 72 µM in test [5]; greater than 12.5 µM in test [6].

Regarding `COc1cccc2c1C(=O)c1c(O)c3c(c(O)c1C2=O)C[C@@](O)(C(=O)CO)C[C@@H]3O[C@H]1C[C@H](N)[C@H](O)[C@H](C)O1` [DOXORUBICIN], the IC50 in test [2] (setting [7]) stood at 1.1 µM.

Consider `COc1cc([C@@H]2c3cc4c(cc3[C@@H](O[C@@H]3O[C@@H]5CO[C@@H](C)O[C@H]5[C@H](O)[C@H]3O)[C@H]3COC(=O)[C@H]23)OCO4)cc(OC)c1O` [ETOPOSIDE], for which the IC50 in test [4] (setting [9]) worked out at 22.1 µM; in test [5] it was 0.03 µM.

In turn, `O=C1C[C@@H](c2ccccc2)Oc2cc(O)cc(O)c21` [PINOCEMBRIN] had a concentration for half-maximal inhibition (IC50) in test [1] of 0.9 µM.
